What was measured:
[1] = test system: Skin Model (type EP1-200); test: Test for evaluating TJ-forming ability: transepidermal water loss (TEWL) of Skin Model; type: cell-based; details: 1 w/v % on surface of Skin Model, 24 hours
Description: Skin Model (type “EP1-200” manufactured by KURABO INDUSTRIES LTD.) was cultured before 24 hours at 37° C. under 5% CO2. Next, an inositol derivative (composition thereof will be described below) dissolved in purified water in each concentration of 0.1, 0.5, and 1 w/v % was added to the surface of Skin Model, and culturing was further performed for 24 hours. Next, the inositol derivative was removed, Skin Model was washed three times with a phosphate buffer solution, and transepidermal water loss (TEWL) thereof was measured. For the measurement of TEWL, a cyclone-type moisture-transpiration meter (manufactured by […]) was used. The inositol derivative used was analyzed by using liquid chromatography-mass spectrometry (LC-MS), and the results are as follows. […] As for a control, prepared were a group added with nothing in place of the inositol derivative and a group added with the same amount of purified water in place of the inositol derivative, and TEWL was measured in the same manner as above. In addition, for comparison, prepared was a group in which myo-inositol dissolved in purified water in a concentration of 1 w/v % was added in place of the inositol derivative, and TEWL was measured in the same manner as above.

claudin-1 (CLDN1) gene = test: Promoting effect on TJ-related gene expression: claudin-1 (CLDN1) gene (quantitative real-time PCR, standardized to GAPDH); type: cell-based, human; details: SVHK cells, 1 μM, 48 hours, purified water control = 1.00
Description: (§1) Human epidermal cells (SVHK cells) which were established from introduction of SV40 gene into human epidermal cells, were seeded on a plastic petri dish at a seeding density of 10,000 cells/cm^2 and cultured for 24 hours in Dulbecco's Modified Eagle's Medium (DMEM, manufactured by Sigma-Aldrich Co. LLC.) containing 10% fetal bovine serum. Next, to the medium of SVHK cells, 1 μM inositol derivative (composition thereof will be described below) dissolved in purified water was added to the final concentration of 1 μM, and culturing was further performed for 48 hours. […] The inositol derivative used was analyzed by using liquid chromatography-mass spectrometry (LC-MS), and the results are as follows. […] Next, quantitative real-time PCR was performed using this cDNA as a template, and the expression levels of claudin-1 (CLDN1) gene and occludin (OCL) gene in SVHK cells of each group were quantified. In addition, the expression level of glyceraldehyde-3-phosphate dehydrogenase (GAPDH) which is a housekeeping gene in which variation is not observed in the expression by adding a compound, as an internal standard gene, was quantified, and based on the expression levels of GAPDH gene in SVHK cells of each group, the expression levels of CLDN1 gene and OCL gene were standardized. […]

occludin (OCL) gene = test: Promoting effect on TJ-related gene expression: occludin (OCL) gene (quantitative real-time PCR, standardized to GAPDH); type: cell-based, human; details: SVHK cells, 1 μM, 48 hours, purified water control = 1.00
Description: as §1

occludin = test: Test for evaluating TJ-forming ability: occludin immunostaining fluorescence intensity in Skin Model slices; type: cell-based; details: 1 w/v %, relative to non-applied group
TRPV4 gene = test: Promoting effect on TRPV4 gene expression (quantitative real-time PCR, standardized to GAPDH); type: cell-based, human; details: SVHK cells, 1 μM, 48 hours, purified water control = 1.00
Description: as §1, with “cells, an” for “cells, 1 μM”, “hours. As for a control, in place of 1 μM inositol derivative, the same amount of purified water was added to SVHK cells, and the cells were cultured in the same manner as above.” for “hours.”, “of TRPV4” for “of claudin-1 (CLDN1) gene and occludin (OCL)”, “of TRPV4” for “of CLDN1 gene and OCL”

O[C@H]1[C@H](O)[C@@H](O)[C@H](O)[C@@H](O)[C@H]1O [Myo-inositol, myo-inositol]
TEWL [1]: 30.7 ± 2.9 g/(h · m^2) | Expression levels of gene (relative value) CLDN1 (claudin-1 (CLDN1) gene): 1.57 relative value | Expression levels of gene (relative value) OCL (occludin (OCL) gene): 0.94 relative value | Fluorescence intensity (relative value) (occludin): 3.32 relative value | Expression levels of TRPV4 gene (relative value) (TRPV4 gene): 0.84 relative value
